# From patent US7026466B1, “Serotonin-gated anion channel” (Massachusetts Institute of Technology, priority 1999, dated 2006)
# Read-outs that look alike come from different tables or passages of the source.
# Legend:
# [1] = molecular target: T1, 5-HT3a channel (Homo sapiens, UniProt P46098)
# T1 sequence (P46098 24-478): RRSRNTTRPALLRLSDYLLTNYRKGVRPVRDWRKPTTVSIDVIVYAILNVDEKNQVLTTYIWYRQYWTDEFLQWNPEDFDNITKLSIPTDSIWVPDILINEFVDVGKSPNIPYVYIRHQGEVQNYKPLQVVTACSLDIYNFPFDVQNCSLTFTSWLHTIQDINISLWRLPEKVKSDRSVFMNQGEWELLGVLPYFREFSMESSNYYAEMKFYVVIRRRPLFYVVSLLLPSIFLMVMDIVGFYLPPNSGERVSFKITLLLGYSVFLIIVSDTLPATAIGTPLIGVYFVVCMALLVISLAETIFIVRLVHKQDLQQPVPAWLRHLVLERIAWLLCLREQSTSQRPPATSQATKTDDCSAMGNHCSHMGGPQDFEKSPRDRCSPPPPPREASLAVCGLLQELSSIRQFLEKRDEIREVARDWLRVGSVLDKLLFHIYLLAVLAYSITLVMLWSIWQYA
# [2] = molecular target: MOD-1 channel (Caenorhabditis elegans, UniProt Q9GQ00); experiment: Voltage clamp of MOD-1 heterologously expressed in Xenopus oocytes or HEK cells; type: cell-based, C. elegans
# Sequence of MOD-1 channel (Q9GQ00 whole entry, looked up): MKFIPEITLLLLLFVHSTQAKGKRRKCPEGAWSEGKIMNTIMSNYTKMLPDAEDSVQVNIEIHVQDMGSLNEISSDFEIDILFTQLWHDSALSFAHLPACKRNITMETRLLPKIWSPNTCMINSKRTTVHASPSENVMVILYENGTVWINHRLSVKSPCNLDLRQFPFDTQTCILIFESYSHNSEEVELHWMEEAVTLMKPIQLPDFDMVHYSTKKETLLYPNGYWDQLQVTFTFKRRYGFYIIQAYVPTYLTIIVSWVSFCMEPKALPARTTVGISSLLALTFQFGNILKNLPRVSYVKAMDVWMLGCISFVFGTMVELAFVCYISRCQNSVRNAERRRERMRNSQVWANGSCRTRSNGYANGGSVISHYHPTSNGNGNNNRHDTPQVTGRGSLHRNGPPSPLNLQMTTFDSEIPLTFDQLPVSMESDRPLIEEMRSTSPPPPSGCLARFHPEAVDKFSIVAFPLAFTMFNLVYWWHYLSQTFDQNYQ
# [3] = test system: MOD-1-like serotonin-activated current; experiment: Voltage clamp of Xenopus oocytes injected with rat brain RNA (MOD-1-like response); type: cell-based; settings: −70 mV, BAPTA-AM 200 μM
# Description: A method to identify a mammalian serotonin-gated chloride channel was carried out essentially as described above. Oocytes were injected with rat cortex RNA. […] The oocytes were then screened under a voltage clamp, in a buffer containing 96 mM NaCl, 2 mM KCl, 0.3 mM CaCl2, 1 mM MgCl2, and 5 mM HEPES (pH 7.5), and with 100 mM Tris added.
# In additional studies, oocytes were injected with poly(A)+ RNA from rat cortex, striatum, or thalamus, as described above. The oocytes were bathed in 200 μM BAPTA-AM for 2 hours, and were then screened under a voltage clamp, in a bath solution containing 2 mM Co^2+ to block 5-HT3a responses. […] FIG. 12 is a representative time trace of a MOD-1-like response from an oocytes injected with rat cortex RNA. These MOD-1-like currents were not detected in oocytes injected with rat RNA from spinal cord, heart, lung, or testes.
# [4] = molecular target: T1, 5-HT3a channel; settings: read-out: IC 50, competitive antagonist of the 5-HT3a channel; cited from earlier work
# [5] = test system: C. elegans; experiment: Enhanced slowing response (locomotion) of food-deprived C. elegans on a bacterial lawn; type: in vivo
# [6] = pretreatment of wild-type C. elegans, food-deprived
compound,measurement,setting,value
NC(CO)(CO)CO [Tris],block of the 5-HT3 cation channel,[1]; 100 mM added to buffer,completely blocks
NCCc1c[nH]c2ccc(O)cc12 [serotonin],current elicited,"[2]; 100 nM, holding potential −70 mV",large inward currents
same,concentration of agonist at which serotonin-gated currents are detectable,"[2]; MOD-1 receptors, HEK cell and Xenopus oocyte expression systems",10 to 50 nM
same,oocytes with inward currents,"[3]; rat cortex RNA, 1 μM serotonin for 1 minute, 100 mM Tris",about 10%
same,oocytes with inward currents,"[3]; rat cortex, striatum or thalamus poly(A)+ RNA, 1 μM serotonin, 2 mM Co2+",approximately 33%
same,response of 5-HT3a channels,[1]; 1 μM serotonin,no response is detectable
same,response of 5-HT3a channels,[1]; 10 μM serotonin,robust current
same,concentration of agonist at which serotonin-gated currents are detectable,"[1]; 5-HT3 receptors, HEK cell and Xenopus oocyte expression systems",> 10 µM
NCCCC(=O)O [GABA],response from the MOD-1 channel,[2]; application of 1 mM agonist,little or no response
CC(=O)OCOC(=O)CN(CC(=O)OCOC(C)=O)c1ccccc1OCCOc1ccccc1N(CC(=O)OCOC(C)=O)CC(=O)OCOC(C)=O [BAPTA-AM],effect on the function of MOD-1,[2]; approximately 200 μM in the bath,does not affect the function of MOD-1
σ-conotoxin GVIIIA,IC50,[4],~0.05 µM
CN1CCN2c3ccccc3Cc3ccccc3C2C1 (centres unmarked) [mianserin],effect on enhanced slowing response,[5]; pre-treatment of mod-1 mutants,did not further affect the defective enhanced slowing response
same,effect on enhanced slowing response,[5]; [6],prevents food-deprived animals from exhibiting the wild-type enhanced slowing response
CSc1ccc2c(c1)C(N1CCN(C)CC1)Cc1ccccc1S2 (centres unmarked) [methiothepin],Ki,"[2]; MOD-1 in oocytes, read-out: approximate Ki, inhibition of the MOD-1 channel",~32 µM
same,effect on enhanced slowing response,[5]; pre-treatment of mod-1 mutants,did not further affect the defective enhanced slowing response
same,effect on enhanced slowing response,[5]; [6],prevents food-deprived animals from exhibiting the wild-type enhanced slowing response
NCC(=O)O [glycine],response from the MOD-1 channel,[2],little or no response
